Measured values reported in patent US20210023024A1, “COMPOSITION FOR TREATMENT OF CHRONIC WOUNDS” (priority 2018, published 2021).

Tested on: diabetic foot ulcer
Experiment: Clinical use of triclosan cream on diabetic foot ulcers (patients 1 and 2)
Format: in vivo, human
Excerpt: A triclosan cream formulation, according to an embodiment of the invention (Example 5), was applied to a number of patients, with differently presented conditions and symptoms. as described below:
diabetic. Neuro ischaemic. Heart rate: pulse mono and biphasic depending on the weather. Indication of reduced arterial blood flow due to a blockage or low elasticity. Ex-smoker. Stage 3 Non healing dorsal diabetic foot ulcer.
The patient had 2 ulcers: • 1) one on the dorsal IPJ on the 2nd toe, size of 5 pence, 1 cm sq and • 2) one on apex of 1st toe, size of 5p, 1 cm sq.
The patient was treated twice a week. The ulcer was filled with the cream to the brim, so the cream was level with skin surface. […] Triclosan cream was applied for 8 weeks. The cream was packed into the wound and a non-adhesive foam dressing was applied. The patient then wore rocker bottom soles to reduce the weight and pressure. Treatment for this toe ulcer started on Mar. 11, 2017 and healed on 20/1/18. No other medication was used.
The patient had 1 ulcer on sole of foot, approximately the size of 50 pence.
While the patient was receiving chemotherapy, the triclosan cream was applied for 8 weeks. The triclosan cream was applied every alternate day, with a sharp debridement and cleansed with sterile saline solution prior to application of the cream. In the last two weeks of treatment the cream was applied daily. […]

Cc1onc(-c2c(F)cccc2Cl)c1C(=O)N[C@@H]1C(=O)N2[C@@H]1SC(C)(C)[C@@H]2C(=O)O [Flucloxacilin]
outcome of previous treatment (Patient 1, before triclosan cream, Flucloxacilin 6 months intermittently, 6 courses): could not clear the infection in the wound
outcome of previous treatment (Patient 2, before triclosan cream): could not clear the infection in the wound
